Source: patent US5780253A, “Screening method for detection of herbicides” (Sandoz Ltd., priority 1996, dated 1998)
Entries after “also recorded” stand apart in the source; their conditions may differ. Where two headings read alike, the source gives them in different places.

Experiments:
Arabidopsis [1] = experiment: Arabidopsis reversal (reversion) assay: growth with probe compound in the presence of antidote compounds; assay type: in vivo; details: for Growth (in words): without antidote; for Inhibition of AMP biosynthesis (conversion of IMP to AMP), in words: concluded from Arabidopsis antidote reversal; for Effect of the antidote alone on growth of the plant (in words): control columns 1 through 3, no probe compound
Excerpt: Test conditions suitable for growth are those conditions wherein the control plant material used in the screen, described herein, will grow normally. These conditions are easily determined by one skilled in the art. Reversal conditions are those conditions in which inhibition which occurs at the lethal concentration of a probe compound is reversed as determined by exposure of the plant material to combinations of the probe compound and to one or more antidote compounds. […] An antidote compound is a compound that causes reversal of inhibition of a probe compound. As an example, with respect to inhibitors of ADSS, antidotes would include AMP, ADP, adenosine and adenine.
The solutions are filter sterilized prior to addition. FIG. 4 represents a typical set up in a reversion assay for discovering inhibitors of AMP biosynthesis.
The left side (columns 1-3) of the 24-well microtiter plate is designed for controls, and the right side (columns 4-6) are designated for one probe compound. […] Rows B, C and D are supplemented with three doses of an antidote for the control and probe compound. […] The three doses are 50, 100 and 150 μl respectively of the stock solutions.
Forty ml of Arabidopsis growth media as described in Example 1 is sterilized and allowed to cool to about 45° C. A probe compound (at 1.5×lethal concentration) is added to columns 4 through 6 (right half of the plate). Media is distributed at 1.0 ml per well to all wells. Sterile seeds are added to each well as described above. As in Example 1, the plate is incubated and growth is scored.

Arabidopsis [2] = experiment: Arabidopsis bioassay, determination of the lethal concentration (LC 90) of the probe compound
IMP to GMP conversion = details: known; cited from earlier work
[3] = antidote Adenosine + Guanosine 0.5-5.0 mM
[4] = antidote Cytidine + Uridine 0.5-5.0 mM
[5] = antidote Hypoxanthine 0.5-5.0 mM
[6] = read-out: lethal concentration (LC 90), Arabidopsis seeds, 28° C., 7 days, approximately, 90% or greater growth inhibition

Compound: NC(=O)c1ncn([C@@H]2O[C@H](CO)[C@@H](O)[C@H]2O)n1 [TCR, 1,2,4-triazole-3-carboxamide-1-ribose, reference compound]
- Growth (in words) (Arabidopsis [1]): Growth is not observed

Compound: O=C1NC(=O)C2(N1)O[C@H](CO)[C@@H](O)[C@H]2O (single isomer, unassigned) [hydantocidin, reference compound]
- Growth, % of Control (Arabidopsis [1]; antidote ADP 0.5-5.0 mM): 100 % of Control
- Growth, % of Control (Arabidopsis [1]; antidote AMP 0.5-5.0 mM): 100 % of Control
- Growth, % of Control (Arabidopsis [1]; antidote ATP 0.5-5.0 mM): 40 % of Control
- Growth, % of Control (Arabidopsis [1]; antidote Adenine 0.5-5.0 mM): 60 % of Control
- Growth, % of Control (Arabidopsis [1]; antidote Adenosine 0.5-5.0 mM): 80-100 % of Control
- Growth, % of Control (Arabidopsis [1]; [3]): 80 % of Control
- Growth, % of Control (Arabidopsis [1]; [4]): 0 % of Control
- Growth, % of Control (Arabidopsis [1]; antidote Guanine 0.5-5.0 mM): 0 % of Control
- Growth, % of Control (Arabidopsis [1]; antidote Guanosine 0.5-5.0 mM): 0 % of Control
- Growth, % of Control (Arabidopsis [1]; [5]): 0 % of Control
- Growth / reversal of growth inhibition (in words) (Arabidopsis [1]; antidote IMP): did not reverse growth inhibition
- Growth, % of Control (Arabidopsis [1]; antidote IMP 0.5-5.0 mM): 5 % of Control
- Growth / reversal of growth inhibition (in words) (Arabidopsis [1]; antidotes adenosine and AMP, rows B and C, wells 4 through 6): Complete growth
- Inhibition of AMP biosynthesis (conversion of IMP to AMP), in words (Arabidopsis [1]): blocking AMP biosynthesis; also recorded: inhibition of AMP biosynthesis
- Growth (in words) (Arabidopsis [1]): Growth is not observed
- IC90 (Arabidopsis [2]; [6]): ~2 µM

Compound: N-acetyl hydantocidin
- Growth, % of Control (Arabidopsis [1]; antidote ADP 0.5-5.0 mM): 100 % of Control
- Growth, % of Control (Arabidopsis [1]; antidote AMP 0.5-5.0 mM): 100 % of Control
- Growth, % of Control (Arabidopsis [1]; antidote ATP 0.5-5.0 mM): 40 % of Control
- Growth, % of Control (Arabidopsis [1]; antidote Adenine 0.5-5.0 mM): 60 % of Control
- Growth, % of Control (Arabidopsis [1]; antidote Adenosine 0.5-5.0 mM): 80-100 % of Control
- Growth, % of Control (Arabidopsis [1]; [3]): 80 % of Control
- Growth, % of Control (Arabidopsis [1]; [4]): 0 % of Control
- Growth, % of Control (Arabidopsis [1]; antidote Guanine 0.5-5.0 mM): 0 % of Control
- Growth, % of Control (Arabidopsis [1]; antidote Guanosine 0.5-5.0 mM): 0 % of Control
- Growth, % of Control (Arabidopsis [1]; [5]): 0 % of Control
- Growth, % of Control (Arabidopsis [1]; antidote IMP 0.5-5.0 mM): 5 % of Control
- Inhibition of AMP biosynthesis (conversion of IMP to AMP), in words (Arabidopsis [1]): blocking AMP biosynthesis
- Growth (in words) (Arabidopsis [1]): Growth is not observed

Compound: Nc1ncnc2c1ncn2[C@@H]1O[C@H](COP(=O)(O)O)[C@@H](O)[C@H]1O [AMP, adenosine monophosphate, reference compound]
- Effect of the antidote alone on growth of the plant (in words) (Arabidopsis [1]): no effect on the growth of the plant

Compound: CC(=O)N1C(=O)NC2(OC(COP(=O)(O)O)C(O)C2O)C1=O (stereo not shown) [N-acetylphosphohydantocidin, 5'-Phospho-N-acetyl-hydantocidin]
- Growth, % of Control (Arabidopsis [1]; No antidote, 0 mM, probe compound at 1.5×lethal concentration): 0 % of Control
- Growth, % of Control (Arabidopsis [1]; antidote ADP 0.5-5.0 mM): 100 % of Control
- Growth, % of Control (Arabidopsis [1]; antidote AMP 0.5-5.0 mM): 100 % of Control
- Growth, % of Control (Arabidopsis [1]; antidote ATP 0.5-5.0 mM): 40 % of Control
- Growth, % of Control (Arabidopsis [1]; antidote Adenine 0.5-5.0 mM): 65 % of Control
- Growth, % of Control (Arabidopsis [1]; antidote Adenosine 0.5-5.0 mM): 80-100 % of Control
- Growth, % of Control (Arabidopsis [1]; [3]): 80 % of Control
- Growth, % of Control (Arabidopsis [1]; [4]): 0 % of Control
- Growth, % of Control (Arabidopsis [1]; antidote Guanine 0.5-5.0 mM): 0 % of Control
- Growth, % of Control (Arabidopsis [1]; antidote Guanosine 0.5-5.0 mM): 0 % of Control
- Growth, % of Control (Arabidopsis [1]; [5]): 0 % of Control
- Growth, % of Control (Arabidopsis [1]; antidote IMP 0.5-5.0 mM): 5 % of Control
- Growth (in words) (Arabidopsis [1]): Growth is not observed
- IC90 (Arabidopsis [2]; [6]): ~8 µM

Compound: O=CN(O)CC(=O)O [hadacidin, reference compound]
- Inhibition of AMP biosynthesis (conversion of IMP to AMP), in words (Arabidopsis [1]): blocking AMP biosynthesis
- Growth (in words) (Arabidopsis [1]): Growth is not observed
- IC90 (Arabidopsis [2]; Arabidopsis thaliana, 168 h, read-out: lethal concentration (LC 90)): ~50 µM

Compound: Nc1ncnc2c1ncn2[C@@H]1O[C@H](CO)[C@@H](O)[C@H]1O [adenosine, reference compound]
- Effect of the antidote alone on growth of the plant (in words) (Arabidopsis [1]): no effect on the growth of the plant

Compound: COc1c(C)c2c(c(O)c1C/C=C(\C)CCC(=O)O)C(=O)OC2 [MPA, Mycophenolic Acid]
- Growth (in words) (Arabidopsis [1]): Growth is not observed
- IC90 (Arabidopsis [2]; Arabidopsis thaliana, 168 h, read-out: lethal concentration): 12.5 µg/mL
- Inhibition of IMP to GMP conversion, in words (IMP to GMP conversion): known inhibitor of IMP to GMP conversion
